Where two headings read alike, the source gives them in different places. Where no end group is shown, it is not given here.
What was measured:
[1] = pH-responsive solubility of nongelling sequences; format: physicochemical
[2] = Hydrogel formation (gelation) of peptides dissolved in PBS with pH adjustment; format: physicochemical; conditions: for gelation as the pH was raised: pH raised from low pH; for hydrogel formation: dissolved in PBS at pH 7.4 and 1.5 wt %
Method: (§1) Lyophilized peptides were dissolved in PBS to a final concentration of 1.5 or 3 wt. %. The pH of the peptide solutions was adjusted by drop-wise addition of minute amounts of HCl or NaOH. Rheological tests were performed on 50 μL hydrogels 30 minutes after induction of gelation (Anton Par, P25S 25 mm parallel steel plates) with a measuring gap of 250 μm. Storage (G′) and loss (G″) moduli were measured as a function of strain (%) ranging from 0.01 to 100% with a constant frequency of 10 rad/s. Frequency sweeps were performed at angular frequencies ranging from 1 to 100 rad/s at 0.1% strain. For recovery experiments, a step-time procedure was utilized with a series of applied strains at a fixed oscillation frequency of 10 rad/s. Initially, samples were applied with 0.01% strain for 100 s followed immediately by a 100% strain for 50 s, and cycled 5 times.
The secondary structural content of pentapeptide specimens was probed by ATR-FTIR spectroscopy. Samples of the pentapeptides of interest were generated via solid-phase peptide synthesis methods. An alanine (Ala) scan of KYFIL was used to assess each AA's contribution to gelation, wherein individual amino acids (AAs) were sequentially exchanged with Ala or Val. Ala and Val were the substituted residues of choice, as they either eliminate a side-chain beyond the Cβ atom (Ala) or otherwise would be expected to minimally alter the main-chain conformation (Val). As uncharged and relatively compact residues, Ala and Val would not be expected to introduce (confounding) electrostatic or steric effects. All pentapeptides were dissolved in phosphate-buffered saline (PBS) at a concentration of 1.5% or 3% (weight/volume) and adjusted to a pH of 7.4. Gelling peptides (solid lines, FIG. 2) display a strong amide I absorbance at ≈1629 cm^−1, arising from vibrational modes of the amide group; these vibrations, in the region of 1700→1600 cm^−1, correspond to stretching of the C═O and C—N bonds, as well as bending of the N—H. This region of the IR spectrum is particularly sensitive to variations in secondary structural conformation and, in the case of our pentapeptide samples, is indicative of β-sheet hydrogen bonding (FIG. 2, FIG. 12, and FIGS. 13A-B). […] This can be inferred because the amide I region of parallel β-sheets harbors a single predominant signature (near 1630 cm^−1), while antiparallel sheets generally feature a second (minor) peak near ≈1680-1690 cm^−1. […] By correlating our IR observations with variations in AA sequence, it appears that amphiphilicity and a capacity for π-system interactions (e.g., π . . . π stacking and π . . . cation interactions with the benzyl side-chain of the central Phe) play a key role in self-assembly and hydrogel formation (FIG. 2).

[3] = Electron microscopy (TEM, cryo-EM) of nanofiber morphology; format: physicochemical; conditions: for typical fiber / ribbon diameter: 1.5 wt % hydrogels at pH 7.4; for nanostructure morphology (TEM): 1.5 wt % in PBS at pH 7.4
Method: 3.5 μL of peptide hydrogel was placed on a holey carbon grid (Protochips, Inc.). Three washes of deionized water, and three washes of 2% uranyl acetate staining solutions with 2 s blotting between each step was performed. Samples were analyzed on a Tecnai F20 equipped with a 4 k×4 k UltraScan CCD camera. Pitch and length were determined using Fiji (Schindelin, J. et al., Fiji: an open-source platform for biological-image analysis. Nat Methods 2012, 9 (7), 676-682, herein incorporated by reference in its entirety) and the FiberApp software package (Usov, I.; Mezzenga, R., FiberApp: An Open-Source Software for Tracking and Analyzing Polymers, Filaments, Biomacromolecules, and Fibrous Objects. Macromolecules 2015, 48 (5), 1269-1280, herein incorporated by reference in its entirety) was used to compute autocorrelation functions of intensity profiles.

[4] = Step-strain recovery / thixotropy test of hydrogel; format: physicochemical
Method: as §1, with “Initially, samples were applied with 0.01% strain for 100 s followed immediately by a 100% strain for 50 s, and cycled 5 times.” left out

[5] = test system: MADM OPC line; test: Hydrogel cell encapsulation and 3D culture (ATP, DNA, live/dead, immunostaining); format: cell-based
Method: OPCs were cultured in DMEM with high glucose, 4 mM L-glutamine, 1 mM sodium pyruvate (Life Technologies) with N2 and B27 supplement (Life Technologies), 1% penicillin-streptomycin (Life Technologies), 10 ng/mL mouse PDGFA-AA (eBioscience), and 50 ng/mL human NT3 (Peprotech). Cell media was changed every 2 days, and cells were grown to 90% confluency and passaged using 0.25% trypsin in Dulbecco's phosphate buffered saline (PBS). Cells were cultured in 5% CO2 atmosphere, and 21% O2 at 37° C.
Hydrogels for cell encapsulation were made using 1.5 wt % AYFIL peptide in PBS. 25 μL hydrogels with 5×10^6 cells/mL were made by mixing cells and peptides and then transferred to a cell incubator for 10 minutes at 37° C. at 100% humidity. OPC proliferation media was then added to the hydrogels, and changed every 2 days. Hydrogels were stored at −80° C. in lysis buffer before running ATP or DNA quantification assays. For quantification, gels were homogenized in lysis buffer using a hand grinder and were measured using the CellTiter-Glo luminescent Cell Viability Assay (Promega, United States) and the QuantiT PicoGreen dsDNA assay (ThermoFisher) according to manufacturer protocols.
After 2 days of culture, gels were fixed in 4% paraformaldehyde for 20 minutes at 4° C. and rinsed with PBS before permeabilizing overnight with 0.3% triton-X in PBS. Hydrogels were rinsed in PBS, and then incubated with 10 μg/mL stock solution of Alexa Fluor 568 Phalloidin (ThermoFisher) in 1% BSA in PBS overnight. 4′,6-diamidino-2-phenylindole (DAPI) was added to stain cell nuclei during the last 20 minutes of incubation. Gels were then washed 4×20 min in PBS and imaged with a Zeiss LSM 780 confocal microscope. 100 μm z-stack images were collected with a z-spacing distance of 1 μm.

[6] = Rheology: storage modulus (G') from strain sweeps of peptide hydrogels; format: physicochemical; conditions: pH 7.4
Method: as §1

[7] = Apparent viscosity versus shear rate (shear-thinning); format: physicochemical
[8] = 1.5 wt. % hydrogel, thixotropy test, 200% strain (200 s), 400 s recovery, FIG. 21 legend

| solubility at low pH [1] | behavior as the pH was raised [1] | gelation as the pH was raised [2] | Substance | typical fiber / ribbon diameter [3] | nanostructure morphology (TEM) [3] | hydrogel formation [2] | storage modulus (G') ([6]; 1.5 wt % hydrogel) [Pa] | storage modulus (G') ([6]; 3 wt % hydrogel) [Pa] | other results |
| --- | --- | --- | --- | --- | --- | --- | --- | --- | --- |
| soluble | precipitated as an off-white powder | never gelled | KYAIL-NH2 [KYAIL] |  |  |  |  |  |  |
| soluble | precipitated as an off-white powder | never gelled | KYFIA-NH2 [KYFIA] |  |  |  |  |  |  |
|  |  |  | KYFIL-NH2 [KYFIL] | ≈ 40 nm | twisted ribbon morphologies | form hydrogels | 8000 | 17000 | twisted ribbon pitch ([3]; 1.5 wt % hydrogel, pH 7.4, EM): ca. 132 nm; twisted ribbon width ([3]; 1.5 wt % hydrogel, pH 7.4, EM): ca. 40 nm; nanostructure morphology (EM) in nongelling conditions ([3]; 1.5 wt %, pH 4.6): amorphous peptide aggregates; periodicity of the fibrillar twist ([3]; visual analysis and autocorrelation function of pixel intensity, TEM): ~120 nm; time to recover 90% of initial G' [4, 8]: 3.5 min; time to recover 96% of initial G' [4, 8]: 7 min; time to recover gel behavior (G'>G'') ([4]; following 100% strain): ≤ 14 s; time to recover 90% of initial G' ([4]; results text (FIG. 21)): 3.4 min; time to recover 96% of initial G' ([4]; results text (FIG. 21)): 7 min; viability and growth of OPCs encapsulated in hydrogel ([5]; 1.5 wt % hydrogel, ATP and DNA concentrations over time): poor cell viability |
|  |  |  | RGDKYFIL (RGDKYFIL-NH2) [8-mer peptide containing KYFIL] |  |  |  | ~100 | ~1000 | shear-thinning behavior (apparent viscosity versus shear rate) [7]: displays shear-thinning behavior |
|  |  |  | AYFIL-NH2 [AYFIL] | ≈ 10 nm | twisted fibrils | form hydrogels | ~1900 |  | viability and growth of OPCs encapsulated in hydrogel [5]: survived and grew; OPC proliferation (increase in DNA concentration) ([5]; 1.5 wt % hydrogel, 4 days): cells proliferate over the course of 4 days; live/dead staining of encapsulated OPCs ([5]; 1.5 wt % hydrogel, day 1): majority of cells remained viable; time OPCs remained viable after encapsulation (ATP increase) ([5]; 96 h): at least 4 days; time of culture to OPC process extension ([5]; without adhesion peptide sequences or native ECM proteins): ≤ 2 days |
| soluble | precipitated as an off-white powder | never gelled | KYFIV-NH2 [KYFIV] |  |  |  |  |  |  |
|  |  |  | KYFAL (KYFAL-NH2) [self-assembling pentapeptide, C-terminally amidated] | ≈ 10 nm | twisted ribbon morphologies, with longer and more infrequent pitch than KYFIL peptides | form hydrogels |  | 133 |  |
|  |  |  | KYFIL-CO2H |  |  |  |  |  | hydrogel formation of carboxyl-terminated variant ([2]; pH 7.4): did not readily form hydrogels |
|  |  |  | KAFIL (KAFIL-NH2) [pentapeptide, C-terminally amidated, gels at pH>10] |  | spherical aggregates |  |  | 200 | gelation at high pH ([2]; pH>10): can gel |
